Here are results for nine compounds from PubChem BioAssay (NCI).

Among the test systems are UO-31 renal; MDA-MB-231 breast; UACC-257 melanoma; HT29 colon; SF-268 CNS; OVCAR-4 ovarian; SF-539 CNS; OVCAR-3 ovarian; NCI-H460 lung; NCI-H226 lung; BT-549 breast; RPMI-8226 leukemia; NCI-H522 lung; M14 melanoma; MDA-MB-435; SF-295 CNS; MALME-3M melanoma.
Assay in all cases: NCI-60 cell line screen, 48 h

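Briefly, cells in 96-well plates were exposed to five compound concentrations for 48 h, and endpoints were estimated by linear interpolation. Definition used: TGI = concentration required for complete inhibition of growth.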 A value given as a limit tells only on which side of the number the result lay.

Take `Cc1cccc(C)c1NC(=O)C(=O)CC(=O)c1sc(Nc2c(C)cccc2C)nc1C`: the TGI with UO-31 renal, in the experiment with MDA-MB-231 breast, in the experiment on UACC-257 melanoma, with HT29 colon, in the experiment on SF-268 CNS and in the experiment with OVCAR-4 ovarian was greater than 100 µM throughout. Also, the TGI in the experiment on SF-539 CNS, in the experiment with OVCAR-3 ovarian, in the experiment with NCI-H460 lung, in the experiment on NCI-H226 lung, in the experiment with BT-549 breast and in the experiment on RPMI-8226 leukemia was greater than 100 µM each time. Besides, the TGI in the experiment with NCI-H522 lung, in the experiment on M14 melanoma, in the experiment with MDA-MB-435 and in the experiment with SF-295 CNS was greater than 100 µM in each case.
Regarding `Cc1nc2ccccc2n1Cc1nnc(-c2ccccc2)o1`, the TGI with UO-31 renal, with MDA-MB-231 breast, with UACC-257 melanoma, with HT29 colon, in the experiment with SF-268 CNS and in the experiment on SF-539 CNS was greater than 100 µM in each case. For the same compound, the TGI with OVCAR-3 ovarian, in the experiment with NCI-H460 lung, in the experiment on MALME-3M melanoma, with BT-549 breast, with RPMI-8226 leukemia and in the experiment with NCI-H522 lung was greater than 100 µM throughout. Also, the TGI with M14 melanoma was greater than 100 µM; in the experiment with MDA-MB-435, 0.692 µM; in the experiment on SF-295 CNS, greater than 100 µM.
Consider `O[C@@H]1[C@H](OC2c3ccccc3-c3ccccc32)[C@H](OCc2ccccc2)[C@@H]2OC[C@H]1O2`, for which the TGI with UO-31 renal, in the experiment with MDA-MB-231 breast, in the experiment with UACC-257 melanoma, in the experiment on HT29 colon, in the experiment with SF-268 CNS and with OVCAR-4 ovarian was greater than 100 µM throughout. The TGI in the experiment with SF-539 CNS is 81.7 µM; in the experiment with OVCAR-3 ovarian, greater than 100 µM; with MALME-3M melanoma, greater than 100 µM; in the experiment on NCI-H226 lung, greater than 100 µM; in the experiment on BT-549 breast, greater than 100 µM; in the experiment on RPMI-8226 leukemia it was greater than 100 µM. The TGI in the experiment on NCI-H522 lung, in the experiment on M14 melanoma, in the experiment with MDA-MB-435 and in the experiment with SF-295 CNS was greater than 100 µM in each case.
`COc1ccc(OC/C(N)=N/NC(=O)c2ccncc2)cc1`: the TGI in the experiment with MDA-MB-231 breast, in the experiment on UACC-257 melanoma, with HT29 colon, in the experiment on SF-268 CNS, in the experiment with OVCAR-4 ovarian and with SF-539 CNS was greater than 100 µM throughout. The TGI with OVCAR-3 ovarian, in the experiment with NCI-H460 lung, in the experiment on MALME-3M melanoma, in the experiment on BT-549 breast, in the experiment with RPMI-8226 leukemia and with NCI-H522 lung was greater than 100 µM each time. Also, the TGI in the experiment with M14 melanoma, with MDA-MB-435 and in the experiment with SF-295 CNS was greater than 100 µM in each case.
In the case of `CCN(C(=O)N[C@@H](CC(C)C)C(=O)NCC(=O)OC)c1ccccc1`, the TGI in the experiment on UO-31 renal is greater than 100 µM; with MDA-MB-231 breast, greater than 100 µM; in the experiment on UACC-257 melanoma, 61.9 µM; with HT29 colon it was greater than 100 µM; in the experiment with OVCAR-4 ovarian, greater than 100 µM; with SF-539 CNS, greater than 100 µM. Besides, the TGI in the experiment on OVCAR-3 ovarian was greater than 100 µM; in the experiment on NCI-H460 lung, greater than 100 µM; with MALME-3M melanoma, 51.1 µM; in the experiment on NCI-H226 lung it was greater than 100 µM; in the experiment with BT-549 breast it was greater than 100 µM; in the experiment with RPMI-8226 leukemia it was greater than 100 µM. For the same compound, the TGI in the experiment with NCI-H522 lung, with M14 melanoma, in the experiment with MDA-MB-435 and with SF-295 CNS was greater than 100 µM throughout.
Turning to `CC1=C(C(=O)NNC(=O)C[N+](C)(C)C)CC(C(=O)NNC(=O)C[N+](C)(C)C)=C(C)N1`, the TGI in the experiment with UO-31 renal, in the experiment with MDA-MB-231 breast, in the experiment with UACC-257 melanoma, in the experiment with HT29 colon, with SF-268 CNS and in the experiment on OVCAR-4 ovarian was greater than 100 µM each time. Further, the TGI with SF-539 CNS, in the experiment on OVCAR-3 ovarian, with NCI-H460 lung, with NCI-H226 lung, with BT-549 breast and with RPMI-8226 leukemia was greater than 100 µM each time. The TGI in the experiment on NCI-H522 lung, with M14 melanoma, in the experiment on MDA-MB-435 and in the experiment with SF-295 CNS was greater than 100 µM in each case.
`Nc1nccc(NCC2(CO)CC(CCc3ccccc3)C2)n1` (stereo unspecified): the TGI in the experiment on UO-31 renal turned out to be 32.3 µM; in the experiment with MDA-MB-231 breast, 48.9 µM; with UACC-257 melanoma, 37.9 µM; with HT29 colon, 23.9 µM; in the experiment on OVCAR-4 ovarian, 47.2 µM; in the experiment on SF-539 CNS, 32.1 µM. In addition, the TGI with OVCAR-3 ovarian amounted to 38.9 µM; in the experiment with NCI-H460 lung, 28.4 µM; in the experiment on MALME-3M melanoma, 29.1 µM; in the experiment on NCI-H226 lung, 51.7 µM; with BT-549 breast, 40.3 µM; in the experiment on RPMI-8226 leukemia, 51 µM. In addition, the TGI amounted to 26 µM with NCI-H522 lung, 28.7 µM in the experiment with MDA-MB-435 and 26.4 µM in the experiment with SF-295 CNS.
As for `C=C1CC[C@@H]2[C@](C)(COC(=O)CCC(=O)OC)CCC[C@@]2(C)[C@@H]1CCC1=CC(=O)OC1`, the TGI in the experiment on UO-31 renal, in the experiment on MDA-MB-231 breast, in the experiment with UACC-257 melanoma, in the experiment on HT29 colon, with OVCAR-4 ovarian and in the experiment on SF-539 CNS was greater than 100 µM throughout. The TGI in the experiment on OVCAR-3 ovarian was greater than 100 µM; in the experiment on NCI-H460 lung, greater than 100 µM; in the experiment with MALME-3M melanoma it was greater than 100 µM; in the experiment with NCI-H226 lung, greater than 100 µM; in the experiment on BT-549 breast, greater than 100 µM; in the experiment with RPMI-8226 leukemia it was 34.2 µM. Besides, the TGI in the experiment on NCI-H522 lung, in the experiment with M14 melanoma, in the experiment on MDA-MB-435 and in the experiment with SF-295 CNS was greater than 100 µM each time.
As to `COC(=O)c1sc(=S)sc1SCc1cccc(CSc2sc(=S)sc2C(=O)OC)c1`, the TGI with UO-31 renal, with MDA-MB-231 breast, in the experiment on UACC-257 melanoma, in the experiment with HT29 colon, in the experiment with SF-268 CNS and in the experiment on OVCAR-4 ovarian was greater than 100 µM throughout. For the same compound, the TGI was 62.6 µM in the experiment on SF-539 CNS; greater than 100 µM in the experiment on OVCAR-3 ovarian; greater than 100 µM in the experiment on NCI-H460 lung; greater than 100 µM in the experiment with MALME-3M melanoma; 94.1 µM in the experiment with BT-549 breast; greater than 100 µM in the experiment on RPMI-8226 leukemia. The TGI in the experiment on NCI-H522 lung, in the experiment on M14 melanoma, in the experiment on MDA-MB-435 and in the experiment on SF-295 CNS was greater than 100 µM in each case.
